This passage reports EC50 and LC50 results from ChEMBL document CHEMBL1157981, “Goniotriocin and (2,4-cis- and -trans)-xylomaticinones, bioactive annonaceous acetogenins from Goniothalamus giganteus” (J Nat Prod, 1999).

≈ marks a conversion by molar mass, not a printed value.

The subject of data set [1] is A549. In words: Cytotoxicity against human A549 cells by MTT assay. The note with it: read-out: ED50 (the source's name). In kind it is functional. For orientation: Tetrazolium dyes change colour on reduction, which living cells bring about.
In data set [2] the test system is MIA PaCa-2. In words: Cytotoxicity against human PaCa2 cells by MTT assay. It is filed as functional. The note with it: read-out: ED50 (the source's name).
For data set [3], the system named is MCF7. Description: Cytotoxicity against human MCF7 cells by MTT assay. Particulars: read-out: ED50 (the source's name). It is filed as functional.
Data set [4] deals with HT-29. In words: Cytotoxicity against human HT-29 cells by MTT assay. It is filed as functional. Particulars: read-out: ED50 (the source's name).
Data set [5] concerns A498. In words: Cytotoxicity against human A-498 cells by MTT assay. In kind it is functional. The note with it: read-out: ED50 (the source's name).
The test system of data set [6] is PC-3. Description: Cytotoxicity against human PC-3 cells by MTT assay. In kind it is functional. The note with it: read-out: ED50 (the source's name).
In data set [7] the test system is Aedes aegypti. Description: Pesticidal activity against yellow fever mosquito larvae by microtiter plate assay. In kind it is functional.
A short description of data set [8]: Toxicity in brine shrimp. Particulars: artemia, in vivo. In kind it is organism-based.

On to `COc1cccc2c1C(=O)c1c(O)c3c(c(O)c1C2=O)C[C@@](O)(C(=O)CO)C[C@@H]3O[C@H]1C[C@H](N)[C@H](O)[C@H](C)O1` [DOXORUBICIN], for which the EC50 in data set [1] came out at 0.017 µg/mL (≈ 0.0313 µM); in data set [2] it was 0.023 µg/mL (≈ 0.0423 µM); in data set [3], 0.21 µg/mL (≈ 0.386 µM); in data set [4], 0.031 µg/mL (≈ 0.057 µM); in data set [5], 0.019 µg/mL (≈ 0.035 µM); in data set [6], 0.062 µg/mL (≈ 0.114 µM).

Take `CCCCCCCCCCCCC(=O)C[C@@H]1C[C@@H](O)[C@@H](CC[C@H](O)[C@@H]2CC[C@@H](CCCCCC(O)CC3=CC(C)OC3=O)O2)O1` (stereo not given in full) [GONIOTRICIN]: the EC50 in data set [1] was 0.033 µg/mL (≈ 0.0518 µM); in data set [2], 1.4 µg/mL (≈ 2.2 µM); in data set [3] it was 0.0033 µg/mL (≈ 0.00518 µM); in data set [4], 0.0012 µg/mL (≈ 0.00188 µM); in data set [5], 0.0011 µg/mL (≈ 0.00173 µM); in data set [6], 0.26 µg/mL (≈ 0.408 µM). In addition, the values for the LC50 in data set [7] and in data set [8] were 3.6 µg/mL (≈ 5.65 µM) and 2.7 µg/mL (≈ 4.24 µM), respectively.

With `C=C(C)[C@H]1Cc2c(ccc3c2O[C@@H]2COc4cc(OC)c(OC)cc4[C@@H]2C3=O)O1` [ROTENONE], the LC50 (usually the concentration that kills 50% of the test population) in data set [7] worked out at 0.3 µg/mL (≈ 0.761 µM).
